Results on two compounds are retold here after patent publication US6667337B2, “Combination therapy for cancer” (Cancer Research Technology Limited, priority 2000, dated 2003).

The test system of series [1] is Murine mammary carcinoma MDAH-MCa-4 tumours. Briefly: Antitumour activity (tumour growth delay, cures) against MDAH-MCa-4 tumour. Type of series: in vivo, female C3H/HeN mice. Conditions: for Growth delay (days) Median: interim analysis. Here is the method:
(§1) Murine mammary carcinoma MDAH—MCa-4 tumours were grown in female C3H/HeN mice from stocks stored in liquid nitrogen at the sixth transplant generation, and were passaged and used for experiments at the eighth transplant generation. Tumours for experiments were grown by inoculating 20 μl of cell suspension (5 mg packed cells) intramuscularly in the right gastrocenmius muscle. Animals were randomised to treatment groups, and treated with drugs when the dliameter of the tumour-bearing leg reached 10-11 mm (ca 0.6 g tumour), approximately 18 days after inoculation. […] Both compounds were administered essentially at the same time (within 1 min). Host toxicity was assessed by determination of lethality, and by measurement of body weight 4-5 days after drug treatment. The diameter of the tumour-bearing leg was measured three times weekly until values exceeded 13 mm (ca 1.4 g tumour) at which time the animals were terminated. The growth curve for each individual tumour was plotted as in FIG. 1, and the time-to-endpoint (TTE, time from treatment to endpoint) was determined for each mouse. The median and mean TTE was determined for each treatment group. The mean tumour growth delay for each group was calculated as the difference between mean TTE for treated and control groups. The statistical significance of the antitumour effects was tested using ANOVA followed by Dunnett's test to determine p values for the significance of differences between individual groups.

Series [2] can be described thus: Host toxicity (lethality, body weight 4-5 days after drug treatment). Type of series: in vivo, female C3H/HeN mice. Here is the method:
as §1

Setting [3] is: DMXAA 80 μmol/kg alone, group 120/B.
Where [4] appears, read: paclitaxel 23.7 μmol/kg alone, group 120/C.

Turning to `Cc1ccc2c(=O)c3cccc(CC(=O)O)c3oc2c1C` [DMXAA, 5,6-dimethylxanthenone-4-acetic acid], the “Growth delay (days) Median” value in series [1] (setting [3]) is 17.9 days. Besides, the “% Body weight change (d4-5) Mean” value in series [2] (setting [3]) is given as −6.0%.
For the compound `CC(=O)O[C@H]1C(=O)[C@@]2(C)[C@H]([C@H](OC(=O)c3ccccc3)[C@]3(O)C[C@H](OC(=O)[C@H](O)[C@@H](NC(=O)c4ccccc4)c4ccccc4)C(C)=C1C3(C)C)[C@]1(OC(C)=O)CO[C@@H]1C[C@@H]2O` [Paclitaxel, paclitaxel], the “Growth delay (days) Median” value in series [1] (setting [4]) turned out to be 3.5 days. Further, the “antitumour activity (in words)” value in series [1] (paclitaxel alone, up to 42 μmol/kg) is “little antitumour activity”. Besides, the “% Body weight change (d4-5) Mean” value in series [2] (setting [4]) is on record as −0.1%. Besides, in series [2] (paclitaxel 23.7 μmol/kg alone, group 120/C, 7 mice treated, interim analysis), the “Number of mice Deaths” value came to 1. Also, the “host toxicity (in words)” value in series [2] (paclitaxel alone, 42 μmol/kg) is “not demonstrably toxic”.
